Starred links: 1 amine or outer side, 2 acyl side, 3 side chain; linkers in the order of their positions; H or OH if unused. Positions of bridges follow the written chain, without caps; N, C: chain ends. Non-standard residues stand in square brackets, D forms with d. Residues, ends and D or L forms follow the SMILES beside them. Groups on a side chain read outwards from the residue. *: point of attachment. Ala(piperidin-4-yl) = O=C([C@H](CC1CCN([*:3])CC1)N[*:1])[*:2]; DOTA = O=C(O)CN1CCN(CC(=O)O)CCN(CC(=O)*)CCN(CC(=O)O)CC1; Phe(4-COOH) = N[C@@H](Cc1ccc(C(=O)O)cc1)C(=O)O; Trp(5-F) = N[C@@H](Cc1c[nH]c2ccc(F)cc12)C(=O)O; X15 = CC(=O)N1CCC(C[C@H](N[*:1])C(=O)[*:2])CC1; X1 = C[C@@H](c1ccccc1)[C@H](N[*:1])C(=O)[*:2]; Trp(1-Me) = Cn1cc(C[C@H](N)C(=O)O)c2ccccc21; γGlu = O=C(O)[C@H](CCC(=O)[*:2])N[*:1]; Ala(4-THP) = N[C@@H](CC1CCOCC1)C(=O)O; hTyr = N[C@@H](CCc1ccc(O)cc1)C(=O)O; Val(3-OH) = CC(C)(O)[C@H](N)C(=O)O; hCha = N[C@@H](CCC1CCCCC1)C(=O)O; 4Pal = N[C@@H](Cc1ccncc1)C(=O)O; Chg = N[C@H](C(=O)O)C1CCCCC1; NMeNle = CCCC[C@H](NC)C(=O)O; PEG4 = NCCOCCOCCOCCOCCC(=O)O; Tle = CC(C)(C)[C@H](N)C(=O)O; hLeu = CC(C)CC[C@H](N)C(=O)O; NMeS = CN[C@@H](CO)C(=O)O; Nle = CCCC[C@H](N)C(=O)O; PEG1 = NCCOCCC(=O)O; Sar = CNCC(=O)O
Molecular target: T1, human 4lg B7-H3 (Homo sapiens, UniProt Q5ZPR3)
T1 sequence (Q5ZPR3 29-534): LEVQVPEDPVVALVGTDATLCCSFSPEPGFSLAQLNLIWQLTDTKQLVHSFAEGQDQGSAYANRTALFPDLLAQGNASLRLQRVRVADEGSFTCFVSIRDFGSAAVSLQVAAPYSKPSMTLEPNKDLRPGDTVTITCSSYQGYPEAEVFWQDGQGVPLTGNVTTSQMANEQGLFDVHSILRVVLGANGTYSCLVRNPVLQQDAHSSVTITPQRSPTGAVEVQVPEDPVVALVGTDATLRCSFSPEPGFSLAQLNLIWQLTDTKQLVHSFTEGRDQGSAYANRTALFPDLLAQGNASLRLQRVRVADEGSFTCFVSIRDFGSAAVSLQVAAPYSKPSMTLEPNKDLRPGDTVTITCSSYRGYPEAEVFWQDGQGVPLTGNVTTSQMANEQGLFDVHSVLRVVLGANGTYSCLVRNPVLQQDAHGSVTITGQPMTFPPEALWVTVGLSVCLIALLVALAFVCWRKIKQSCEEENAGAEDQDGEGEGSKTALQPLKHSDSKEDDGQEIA
Assay: Affinity determination by surface plasmon resonance (SPR) to 4Ig B7-H3
Details: 4Ig B7-H3

[1] = SPR KD—37° C., 37° C. flow cell temperature
[2] = SPR KD—25° C., 25° C. flow cell temperature

Row | Compound | Kd [1] [nM] | Kd [2] [nM]
1 | CC(=O)N[C@@H](CCC1CCCCC1)C(=O)N[C@@H](Cc1ccc(O)cc1)C(=O)N[C@H]1CSSC[C@@H](C(=O)N[C@@H](Cc2c[nH]c3ccc(F)cc23)C(=O)N[C@@H](Cc2ccccc2)C(=O)N[C@H](C(=O)N[C@H](CCCCNC(=O)CN2CCN(CC(=O)O)CCN(CC(=O)O)CCN(CC(=O)O)CC2)C(=O)O)C(C)(C)O)NC(=O)[C@H](Cc2ccc(O)cc2)NC(=O)[C@H](C(C)C)NC(=O)[C@H](CC(=O)O)NC(=O)[C@H](CC2CCOCC2)NC(=O)[C@H](CC2CCNCC2)NC(=O)CNC(=O)[C@H](C(C)(C)C)NC1=O [compound 442, Ac-hCha-Y-C-Tbg-G-PipAla-ThpA-D-V-Y-C-5FW-F-hydroxyVal-dLys(DOTA)-COOH] (Ac-[hCha]YC[Tle]G[Ala(piperidin-4-yl)][Ala(4-THP)]DVYC[Trp(5-F)]F[Val(3-OH)][dK](DOTA)-OH; disulfide 3-11) | < 1 | –
2 | CC(=O)N[C@@H](CCC(C)C)C(=O)N[C@@H](Cc1ccc(O)cc1)C(=O)N[C@H]1CSSC[C@@H](C(=O)N[C@@H](Cc2c[nH]c3ccc(F)cc23)C(=O)N[C@@H](Cc2ccccc2)C(=O)N[C@H](C(=O)N[C@H](CCCCNC(=O)CN2CCN(CC(=O)O)CCN(CC(=O)O)CCN(CC(=O)O)CC2)C(=O)O)C(C)(C)O)NC(=O)[C@H](Cc2ccc(O)cc2)NC(=O)[C@H](C(C)C)NC(=O)[C@H](CC(=O)O)NC(=O)[C@H](CC2CCOCC2)NC(=O)[C@H](CCCCN)NC(=O)CN(C)C(=O)[C@H]([C@@H](C)O)NC1=O [compound 386, Ac-hLeu-Y-C-Thr-Sar-K-ThpA-D-V-Y-C-5FW-F-hydroxyVal-dLys(DOTA)-COOH] (Ac-[hLeu]YCT[Sar]K[Ala(4-THP)]DVYC[Trp(5-F)]F[Val(3-OH)][dK](DOTA)-OH; disulfide 3-11) | 1 to 10 | –
3 | CC(=O)N[C@@H](CCC(C)C)C(=O)N[C@@H](Cc1ccc(O)cc1)C(=O)N[C@H]1CSSC[C@@H](C(=O)N[C@@H](Cc2c[nH]c3ccc(F)cc23)C(=O)N[C@@H](Cc2ccccc2)C(=O)N2CCC[C@H]2C(=O)N[C@H](CCCCNC(=O)CN2CCN(CC(=O)O)CCN(CC(=O)O)CCN(CC(=O)O)CC2)C(=O)O)NC(=O)[C@H](Cc2ccc(O)cc2)NC(=O)[C@H](C(C)C)NC(=O)[C@H](CC(=O)O)NC(=O)[C@H](Cc2ccc(C(=O)O)cc2)NC(=O)[C@H](CC2CCNCC2)NC(=O)CNC(=O)[C@H](C(C)C)NC1=O [compound 313, Ac-hLeu-Y-C-V-G-PipAla-4COOHPhe-D-V-Y-C-5FW-F-Pro-dLys(DOTA)-COOH] (Ac-[hLeu]YCVG[Ala(piperidin-4-yl)][Phe(4-COOH)]DVYC[Trp(5-F)]FP[dK](DOTA)-OH; disulfide 3-11) | < 1 | –
4 | CCCC[C@@H](C(=O)N[C@H](C(=O)N[C@H](CCCCNC(=O)CN1CCN(CC(=O)O)CCN(CC(=O)O)CCN(CC(=O)O)CC1)C(N)=O)[C@@H](C)O)N(C)C(=O)[C@H](Cc1c[nH]c2ccc(F)cc12)NC(=O)[C@@H]1CSSC[C@H](NC(=O)[C@H](Cc2ccc(O)cc2)NC(=O)[C@H](CCC(C)C)NC(C)=O)C(=O)N[C@@H](C(C)C)C(=O)NCC(=O)N[C@@H](CCCCN)C(=O)N[C@@H](Cc2ccc(O)cc2)C(=O)N[C@@H](CC(=O)O)C(=O)N[C@@H](C(C)C)C(=O)N[C@@H](Cc2ccc(O)cc2)C(=O)N1 [compound 176, Ac-hLeu-Y-C-V-G-K-Y-D-V-Y-C-5FW-NMeNle-Thr-dLys(DOTA)-CONH2] (Ac-[hLeu]YCVGKYDVYC[Trp(5-F)][NMeNle]T[dK](DOTA)-NH2; disulfide 3-11) | – | 1 to 10
5 | CC(=O)N[C@@H](CCC(C)C)C(=O)N[C@@H](Cc1ccc(O)cc1)C(=O)N[C@H]1CSSC[C@@H](C(=O)N[C@@H](Cc2c[nH]c3ccc(F)cc23)C(=O)N[C@@H](Cc2ccccc2)C(=O)N(C)[C@@H](CO)C(=O)N[C@H](CCCCNC(=O)CN2CCN(CC(=O)O)CCN(CC(=O)O)CCN(CC(=O)O)CC2)C(N)=O)NC(=O)[C@H](Cc2ccc(O)cc2)NC(=O)[C@H](C(C)C)NC(=O)[C@H](CC(=O)O)NC(=O)[C@H](Cc2ccc(O)cc2)NC(=O)[C@H](CCCCN)NC(=O)CNC(=O)[C@H](C(C)C)NC1=O [compound 148, Ac-hLeu-Y-C-V-G-K-Y-D-V-Y-C-5FW-F-NMeSer-dLys(DOTA)-CONH2] (Ac-[hLeu]YCVGKYDVYC[Trp(5-F)]F[NMeS][dK](DOTA)-NH2; disulfide 3-11) | – | < 1
6 | CCCC[C@H](NC(C)=O)C(=O)N[C@@H](Cc1ccc(O)cc1)C(=O)N[C@H]1CSSC[C@@H](C(=O)N[C@@H](Cc2cn(C)c3ccccc23)C(=O)N[C@@H](Cc2ccccc2)C(=O)N[C@H](C(=O)N[C@H](CCCCNC(=O)CN2CCN(CC(=O)O)CCN(CC(=O)O)CCN(CC(=O)O)CC2)C(N)=O)[C@@H](C)O)NC(=O)[C@H](Cc2ccc(O)cc2)NC(=O)[C@H](C(C)C)NC(=O)[C@H](CC(=O)O)NC(=O)[C@H](Cc2ccc(O)cc2)NC(=O)[C@H](CCCCN)NC(=O)CNC(=O)[C@H](C(C)C)NC1=O [compound 132, Ac-Nle-Y-C-V-G-K-Y-D-V-Y-C-Trp(Me)-F-Thr-dLys(DOTA)-CONH2] (Ac-[Nle]YCVGKYDVYC[Trp(1-Me)]FT[dK](DOTA)-NH2; disulfide 3-11) | – | 1 to 10
7 | CCCC[C@H](NC(C)=O)C(=O)N[C@@H](Cc1ccc(O)cc1)C(=O)N[C@H]1CSSC[C@@H](C(=O)N[C@@H](Cc2c[nH]c3ccccc23)C(=O)N[C@@H](Cc2ccccc2)C(=O)N[C@H](C(=O)N[C@H](CCCCNC(=O)CN2CCN(CC(=O)O)CCN(CC(=O)O)CCN(CC(=O)O)CC2)C(N)=O)[C@@H](C)O)NC(=O)[C@H](Cc2ccc(O)cc2)NC(=O)[C@H](C(C)C)NC(=O)[C@H](CC(=O)O)NC(=O)[C@H](Cc2ccc(O)cc2)NC(=O)[C@H](CCCCN)NC(=O)CNC(=O)[C@H](C(C)(C)C)NC1=O [compound 61, Ac-Nle-Y-C-Tbg-G-K-Y-D-V-Y-C-W-F-Thr-dLys(DOTA)-CONH2] (Ac-[Nle]YC[Tle]GKYDVYCWFT[dK](DOTA)-NH2; disulfide 3-11) | – | 1 to 10
8 | CC(=O)N[C@@H](CCC(C)C)C(=O)N[C@@H](Cc1ccc(O)cc1)C(=O)N[C@H]1CSSC[C@@H](C(=O)N[C@@H](Cc2c[nH]c3ccc(F)cc23)C(=O)N[C@H](C(=O)N[C@H](C(=O)N[C@H](C)C(=O)O)C(C)(C)O)[C@@H](C)c2ccccc2)NC(=O)[C@H](Cc2ccc(O)cc2)NC(=O)[C@H](C(C)C)NC(=O)[C@H](CC(=O)O)NC(=O)[C@H](CC2CCN(C(=O)CCOCCOCCOCCOCCNC(=O)CN3CCN(CC(=O)O)CCN(CC(=O)O)CCN(CC(=O)O)CC3)CC2)NC(=O)[C@H](CC2CCN(C(C)=O)CC2)NC(=O)CNC(=O)[C@H](C(C)(C)C)NC1=O [compound 513, Ac-hLeu-Y-C-Tbg-G-Pip(Ac)Ala-Pip(PEG4-DOTA)Ala-D-V-Y-C-5FW-[(2S, 3S)beta-Me-Phe]-hydroxyVal-dAla-COOH] (Ac-[hLeu]YC[Tle]G[X15][Ala(piperidin-4-yl)]([PEG4-DOTA])DVYC[Trp(5-F)][X1][Val(3-OH)][dA]-OH; disulfide 3-11) | < 1 | –
9 | CC(C)CC[C@H](NC(=O)CCOCCNC(=O)CC[C@H](NC(=O)CN1CCN(CC(=O)O)CCN(CC(=O)O)CCN(CC(=O)O)CC1)C(=O)O)C(=O)N[C@@H](Cc1ccc(O)cc1)C(=O)N[C@H]1CSSC[C@@H](C(=O)N[C@@H](Cc2c[nH]c3ccc(F)cc23)C(=O)N[C@@H](Cc2ccccc2)C(=O)N[C@H](C(N)=O)C(C)(C)O)NC(=O)[C@H](Cc2ccc(O)cc2)NC(=O)[C@H](C(C)C)NC(=O)[C@H](CC(=O)O)NC(=O)[C@H](CC2CCOCC2)NC(=O)[C@H](CCCCN)NC(=O)CNC(=O)[C@H](C(C)(C)C)NC1=O [compound 395, DOTA-gE-PEG1-hLeu-Y-C-Tbg-G-K-ThpA-D-V-Y-C-5FW-F-hydroxyVal-CONH2] ({DOTA-γGlu-PEG1}-[hLeu]YC[Tle]GK[Ala(4-THP)]DVYC[Trp(5-F)]F[Val(3-OH)]-NH2; disulfide 3-11) | 1 to 10 | –
10 | CC(=O)N[C@@H](CCC(C)C)C(=O)N[C@@H](Cc1ccc(O)cc1)C(=O)N[C@H]1CSSC[C@@H](C(=O)N[C@@H](Cc2c[nH]c3ccc(F)cc23)C(=O)N[C@@H](Cc2ccccc2)C(=O)N[C@H](C(=O)N[C@H](CCCCNC(=O)CN2CCN(CC(=O)O)CCN(CC(=O)O)CCN(CC(=O)O)CC2)C(N)=O)[C@@H](C)O)NC(=O)[C@H](Cc2ccc(O)cc2)NC(=O)[C@H](C(C)C)NC(=O)[C@H](CC(=O)O)NC(=O)[C@H](CCc2ccc(O)cc2)NC(=O)[C@H](CCCCN)NC(=O)CNC(=O)[C@H](C(C)C)NC1=O [compound 167, Ac-hLeu-Y-C-V-G-K-hTyr-D-V-Y-C-5FW-F-Thr-dLys(DOTA)-CONH2] (Ac-[hLeu]YCVGK[hTyr]DVYC[Trp(5-F)]FT[dK](DOTA)-NH2; disulfide 3-11) | – | 1 to 10
11 | CC(=O)N[C@@H](CCC(C)C)C(=O)N[C@@H](Cc1ccc(O)cc1)C(=O)N[C@H]1CSSC[C@@H](C(=O)N[C@@H](Cc2c[nH]c3ccccc23)C(=O)N[C@@H](Cc2ccccc2)C(=O)N[C@H](C(=O)N[C@H](CCCCNC(=O)CN2CCN(CC(=O)O)CCN(CC(=O)O)CCN(CC(=O)O)CC2)C(N)=O)[C@@H](C)O)NC(=O)[C@H](Cc2ccc(O)cc2)NC(=O)[C@H](C2CCCCC2)NC(=O)[C@H](CC(=O)O)NC(=O)[C@H](Cc2ccncc2)NC(=O)[C@H](CCCCN)NC(=O)CNC(=O)[C@H](C(C)(C)C)NC1=O [compound 152, Ac-hLeu-Y-C-Tbg-G-K-4PyA-D-ChG-Y-C-W-F-Thr-dLys(DOTA)-CONH2] (Ac-[hLeu]YC[Tle]GK[4Pal]D[Chg]YCWFT[dK](DOTA)-NH2; disulfide 3-11) | – | < 1

Source: patent US20250296959A1, “B7-H3 TARGETING PEPTIDES AND CONSTRUCTS THEREOF” (Mariana Oncology Inc., priority 2024, published 2025)
